Patent publication US6486185B1, “3-heteroarylidene-2-indolinone protein kinase inhibitors” (Sugen, Inc., priority 1997, dated 2002)

Biological target: T1, FLK-1R (Mus musculus, UniProt P35918)
T1 construct: expressed in transfected cells; host or cells: NIH3T3 C7#3
Assay: FLK-1 receptor ELISA in cells engineered to express Flk-1
Type: cell-based
Conditions: 50% inhibition of PTK activity over control
Procedure: The cellular/catalytic assays described herein are performed in an ELISA format. The general procedure is a follows: a compound is introduced to cells expressing the test kinase, either naturally or recombinantly, for some period of time after which, if the test kinase is a receptor, a ligand known to activate the receptor's activity is added. The cells are lysed and the lysate is transferred to the wells of an ELISA plate previously coated with a specific antibody recognizing the substrate of the enzymatic phosphorylation reaction. Non-substrate components of the cell lysate are washed away and the amount of phosphorylation on the substrate is detected with an antibody specifically recognizing phosphotyrosine compared with control cells that were not contacted with a test compound.
An ELISA assay is conducted to measure the kinase activity of the FLK-1 receptor and more specifically, the inhibition or activation of TK activity on the FLK-1 receptor. Specifically, the following assay can be conducted to measure kinase activity of the FLK-1 receptor in cells genetically engineered to express Flk-1.
The following reagents and supplies are used:
a. Corning 96-well ELISA plates (Corning Catalog No. 25805-96);
b. Cappel goat anti-rabbit IgG (catalog no. 55641);
c. PBS (Gibco Catalog No. 450-1300EB);
d. TBSW Buffer (50 mM Tris (pH 7.2), 150 mM NaCl and 0.1% Tween-20);
e. Ethanolamine stock (10% ethanolamine (pH 7.0), stored at 4° C.);
f. HNTG buffer (20 mM HEPES buffer (pH 7.5), 150 mM NaCl, 0.2% Triton X-100, and 10% glycerol);
g. EDTA (0.5 M (pH 7.0) as a 100×stock);
h. Sodium orthovanadate (0.5 M as a 100×stock);
i. Sodium pyrophosphate (0.2 M as a 100×stock);
j. NUNC 96 well V bottom polypropylene plates (Applied Scientific Catalog No. AS-72092);
k. NIH3T3 C7#3 Cells (FLK-1 expressing cells)
l. DMEM with 1×high glucose L-Glutamine (catalog No. 11965-050);
n. L-glutamine, Gibco (catalog no. 25030-016);
o. VEGF, PeproTech, Inc. (catalog no. 100-20) (kept as 1 μg/100 μL stock in Milli-Q dH2O and stored at −20° C.;
p. Affinity purified anti-FLK-1 antiserum;
q. UB40 monoclonal antibody specific for phosphotyrosine (see, Fendley, et al., 1990, Cancer Research 50:1550-1558);
r. EIA grade Goat anti-mouse IgG-POD (BioRad catalog no. 172-1011);
s. 2,2-azino-bis(3-ethylbenz-thiazoline-6-sulfonic acid (ABTS) solution (100 mM citric acid (anhydrous), 250 mM Na2HPO4 (pH 4.0), 0.5 mg/mL ABTS (Sigma catalog no. A-1888)), solution should be stored in dark at 4° C. until ready for use;
t. H2O2 (30% solution) (Fisher catalog no. H325);
u. ABTS/H2O2 (15 mL ABTS solution, 2 μL H2O2) prepared 5 minutes before use and left at room temperature;
v. 0.2 M HCl stock in H2O;
w. dimethylsulfoxide (100%)(Sigma Catalog No. D-8418); and
y. Trypsin-EDTA (Gibco BRL Catalog No. 25200-049).
The following protocol can be used for conducting the assay:
1. Coat Corning 96-well ELISA plates with 1.0 μg per well Cappel Anti-rabbit IgG antibody in 0.1 M Na2CO3 pH 9.6. Bring final volume to 150 μL per well. Coat plates overnight at 4° C. Plates can be kept up to two weeks when stored at 4° C.
2. Grow cells in Growth media(DMEM, supplemented with 2.0 mM L-Glutamine, 10% FBS) in suitable culture dishes until confluent at 37° C., 5% CO2.
3. Harvest cells by trypsinization and seed in Corning 25850 polystyrene 96-well round bottom cell plates, 25.000 cells/well in 200 μL of growth media.
4. Grow cells at least one day at 37° C., 5% CO2.
5. Wash cells with D-PBS 1×.
6. Add 200 μL/well of starvation media (DMEM, 2.0 mM 1-Glutamine, 0.1% FBS). Incubate overnight at 37° C., 5% CO2.
7. Dilute Compounds 1:20 in polypropylene 96 well plates using starvation media. Dilute dimethylsulfoxide 1:20 for use in control wells.
8. Remove starvation media from 96 well cell culture plates and add 162 μL of fresh starvation media to each well.
9. […]

T1 sequence (P35918 20-1345): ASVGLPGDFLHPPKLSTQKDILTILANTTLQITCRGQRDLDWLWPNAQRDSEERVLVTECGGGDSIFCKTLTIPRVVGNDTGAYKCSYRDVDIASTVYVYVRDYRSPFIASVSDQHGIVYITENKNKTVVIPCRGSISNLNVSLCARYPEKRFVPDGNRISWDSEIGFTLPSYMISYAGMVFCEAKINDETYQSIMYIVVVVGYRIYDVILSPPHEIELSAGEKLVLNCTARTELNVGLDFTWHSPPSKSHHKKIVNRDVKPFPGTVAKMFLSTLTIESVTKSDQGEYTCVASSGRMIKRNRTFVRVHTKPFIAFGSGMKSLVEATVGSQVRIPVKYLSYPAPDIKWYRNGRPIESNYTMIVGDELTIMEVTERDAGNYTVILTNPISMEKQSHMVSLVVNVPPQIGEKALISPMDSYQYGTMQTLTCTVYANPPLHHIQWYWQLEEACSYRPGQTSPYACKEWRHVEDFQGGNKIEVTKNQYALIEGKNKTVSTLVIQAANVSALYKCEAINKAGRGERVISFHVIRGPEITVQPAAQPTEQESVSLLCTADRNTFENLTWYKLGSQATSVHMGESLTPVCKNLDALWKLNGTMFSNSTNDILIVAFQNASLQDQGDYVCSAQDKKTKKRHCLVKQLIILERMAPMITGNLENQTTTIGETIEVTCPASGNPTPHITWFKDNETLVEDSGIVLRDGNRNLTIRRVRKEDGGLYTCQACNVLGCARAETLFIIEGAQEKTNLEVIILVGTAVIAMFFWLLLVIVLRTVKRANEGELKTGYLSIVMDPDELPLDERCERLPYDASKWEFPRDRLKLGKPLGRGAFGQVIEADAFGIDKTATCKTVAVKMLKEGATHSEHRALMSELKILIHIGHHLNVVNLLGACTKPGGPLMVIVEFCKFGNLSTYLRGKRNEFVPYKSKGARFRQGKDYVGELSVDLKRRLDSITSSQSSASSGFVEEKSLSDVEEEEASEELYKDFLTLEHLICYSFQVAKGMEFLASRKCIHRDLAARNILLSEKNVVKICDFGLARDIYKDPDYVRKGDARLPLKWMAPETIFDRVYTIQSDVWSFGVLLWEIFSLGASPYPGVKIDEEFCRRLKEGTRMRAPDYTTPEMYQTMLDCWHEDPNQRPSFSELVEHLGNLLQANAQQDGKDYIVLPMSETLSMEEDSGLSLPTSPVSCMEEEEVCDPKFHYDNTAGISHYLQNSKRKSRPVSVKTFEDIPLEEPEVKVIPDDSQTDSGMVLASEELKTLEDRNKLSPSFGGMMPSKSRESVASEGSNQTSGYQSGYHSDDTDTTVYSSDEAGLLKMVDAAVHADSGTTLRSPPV

| SMILES | IC50 |
| --- | --- |
| COC(=O)Cc1c(Cl)[nH]c(C=C2C(=O)Nc3ccccc32)c1C(=O)OC [3-(2-chloro-4-methoxycarbonyl-3-methoxycarbonylmethylpyrrol-5-methylidenyl)-2-indolinone] | > 50 µM |
| COC(=O)CCc1c[nH]c(C=C2C(=O)Nc3ccccc32)c1C [3-[4-(2-methoxycarbonylethyl-3-methylpyrrol-2-methylidenyl]-2-indolinone] | 1.1 µM |
| CCOC(=O)c1[nH]c(C=C2C(=O)Nc3ccccc32)c(C(C)=O)c1C [3-(4-acetyl-2-ethoxycarbonyl-3-methylpyrrol-5-methylidenyl)-2-indolinone] | > 10 µM |
| CCOC(=O)c1c[nH]c(C=C2C(=O)Nc3ccccc32)c1C [3-(4-ethoxycarbonyl-3-methylpyrrol-2-methylidenyl)-2-indolinone] | 0.2 µM |
| Cc1c[nH]c(C=C2C(=O)Nc3ccccc32)c1CCC(=O)O [3-[3-(2-carboxyethyl-4-methylpyrrol-2-methylidenyl]-2-indolinone] | 0.4 µM |
| CCOC(=O)CCc1c(C(=O)OCC)[nH]c(C=C2C(=O)Nc3ccccc32)c1CC(=O)OCC [3-[2-ethoxycarbonyl-3-(2-ethoxycarbonylethyl)-4-ethoxycarbonylmethyl)pyrrol-5-methylidenyl)-2-indolinone] | > 10 µM |
| COC(=O)CCc1c[nH]c(C=C2C(=O)Nc3cc(OC)c(OC)cc32)c1C [3-[4-(2-methoxycarbonylethyl)-3-methylpyrrol-2-methylidenyl]-5,6-dimethoxy-2-indolinone] | 36 µM |
| CCOC(=O)c1c(C)[nH]c(C=C2C(=O)Nc3ccc(Br)cc32)c1C [3-(2,4-dimethyl-3-ethoxycarbonylpyrrol-5-methylidenyl)-5-bromo-2-indolinone] | 4.2 µM |
| CC(=O)c1[nH]c(C=C2C(=O)Nc3ccccc32)c(C)c1C [3-(2-acetyl-3,4-dimethylpyrrol-5-methylidenyl)-2-indolinone] | 23.8 µM |
| CCOC(=O)c1c(C)[nH]c(C=C2C(=O)Nc3ccc(NC(=O)c4ccc(C(=O)OC)cc4)cc32)c1C [3-(2,4-dimethyl-3-ethoxycarbonylpyrrol-5-methylidenyl)-5-(4-methoxycarbonylbenzamido)-2-indolinone] | > 10 µM |
